Tests used:
[1] = Inhibition of Metallo-beta-lactamase IMP-1 (unknown origin); design: species or system Bacteria
Serratia marcescens = assay: Antibacterial activity against IMP-1 expressing Serratia marcescens CL5741 assessed as inhibition of bacterial growth in presence of IMI by absorbance based assay; assay type: functional
[2] = Inhibition of Metallo-beta-lactamase VIM-1 (unknown origin); design: species or system Bacteria
Escherichia coli = assay: Antibacterial activity against NDM-1 expressing Escherichia coli CLB30016 assessed as inhibition of bacterial growth in presence of IMI by absorbance based assay; assay type: functional
Pseudomonas aeruginosa [3] = assay: Antibacterial activity against mutant isogenic efflux/IMP-1 expressing Pseudomonas aeruginosa MB9799 assessed as inhibition of bacterial growth in presence of IMI by absorbance based assay; assay type: functional
Klebsiella pneumoniae = assay: Antibacterial activity against VIM-1 expressing Klebsiella pneumoniae IHMA599644 assessed as inhibition of bacterial growth in presence of IMI by absorbance based assay; assay type: functional
Pseudomonas aeruginosa [4] = assay: Antibacterial activity against wildtype isogenic efflux/IMP-1 expressing Pseudomonas aeruginosa MB9798 assessed as inhibition of bacterial growth in presence of IMI by absorbance based assay; assay type: functional
[5] = Efflux ratio of MITC95 for antibacterial activity against wildtype isogenic efflux/IMP-1 expressing Pseudomonas aeruginosa MB9798 assessed as inhibition of bacterial growth in presence of IMI to MITC95 for antibacterial activity against mutant isogenic efflux/IMP-1 expressing Pseudomonas aeruginosa MB9799 assessed as inhibition of bacterial growth in presence of IMI; assay type: functional
[6] = Inhibition of Metallo-beta-lactamase VIM-2 (unknown origin); design: species or system Bacteria
[7] = molecular target: Metallo-beta-lactamase type 2 (Bacteria, UniProt C7C422); assay: Inhibition of Metallo-beta-lactamase NDM-1 (unknown origin)
Chain of Metallo-beta-lactamase type 2 (C7C422 whole entry): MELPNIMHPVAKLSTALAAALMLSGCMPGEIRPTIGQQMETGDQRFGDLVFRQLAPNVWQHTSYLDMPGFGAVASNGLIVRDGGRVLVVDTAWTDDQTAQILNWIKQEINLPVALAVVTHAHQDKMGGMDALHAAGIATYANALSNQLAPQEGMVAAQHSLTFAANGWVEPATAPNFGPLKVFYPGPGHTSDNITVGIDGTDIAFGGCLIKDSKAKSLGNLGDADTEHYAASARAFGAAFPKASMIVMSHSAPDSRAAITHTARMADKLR

[8] = Toxicity in rat assessed as emesis at 1 mg/kg, iv; assay type: organism-based; conditions: in vivo
[9] = Toxicity in rat assessed as anaphylaxis at 1 mg/kg, iv; assay type: organism-based; conditions: in vivo
[10] = Toxicity in cardiovascular rat model assessed as increase in histamine release in plasma at 3 mg/kg,iv for 20 mins followed by 10 mg/kg, iv dose for next 20 mins and measured after 20 mins of iv dose with 30 mg/kg; assay type: organism-based; conditions: in vivo, 1 h, time 60 min
[11] = Toxicity in cardiovascular rat model assessed as increase in histamine release in plasma at 30 mg/kg, iv; assay type: organism-based; conditions: in vivo
[12] = Toxicity in dog assessed as watery eyes at 1 mg/kg; assay type: organism-based, Canis lupus familiaris; conditions: in vivo
[13] = Toxicity in rat assessed as watery eyes at 1 mg/kg, iv; assay type: organism-based; conditions: in vivo
[14] = Toxicity in dog assessed as emesis at 1 mg/kg; assay type: organism-based, Canis lupus familiaris; conditions: in vivo
[15] = Cmax in rat at 30 mg/kg, iv; assay type: ADME, organism-based; conditions: in vivo
[16] = Toxicity in rat mast cells assessed as degranulation by measuring histamine release at >=300 microM; assay type: cell-based; conditions: mast cell
[17] = Toxicity in dog assessed as anaphylaxis at 1 mg/kg; assay type: organism-based, Canis lupus familiaris; conditions: in vivo
[18] = Toxicity in cardiovascular rat model assessed as decrease in blood pressure at 3 mg/kg,iv for 20 mins followed by 10 mg/kg, iv dose for next 20 mins and measured after 20 mins of iv dose with 30 mg/kg; assay type: organism-based; conditions: in vivo, 1 h, time 60 min
[19] = MRT in rat at 4 mg/kg, iv; assay type: ADME, organism-based; conditions: in vivo
[20] = Toxicity in rat assessed as adverse effect at 4 mg/kg, iv; assay type: organism-based; conditions: in vivo
[21] = Clearance in rat at 4 mg/kg, iv; assay type: ADME, organism-based; conditions: in vivo
[22] = Unbound fraction in rat plasma at 4 mg/kg, iv; assay type: ADME, organism-based
[23] = Cmax in rat at 4 mg/kg, iv; assay type: ADME, organism-based; conditions: in vivo
[24] = Toxicity in rat mast cells assessed as degranulation by measuring histamine release at >=100 microM; assay type: cell-based; conditions: mast cell
[25] = Toxicity in cardiovascular rat model assessed as increase in histamine release in plasma at 4 mg/kg, iv; assay type: organism-based; conditions: in vivo
[26] = Volume of distribution at steady state in rat at 4 mg/kg, iv; assay type: ADME, organism-based; conditions: in vivo, read-out: Vdss
[27] = AUC in rat at 4 mg/kg, iv; assay type: ADME, organism-based; conditions: in vivo
[28] = Cmax in rat at 5 mg/kg, iv; assay type: ADME, organism-based; conditions: in vivo
[29] = Toxicity in rat mast cells assessed as degranulation by measuring histamine release at >=33 microM; assay type: cell-based; conditions: mast cell
[30] = Toxicity in cardiovascular rat model assessed as increase in histamine release in plasma at 5 mg/kg, iv measured after >8 mins; assay type: organism-based; conditions: in vivo
[31] = Volume of distribution at steady state in rat at 1 mg/kg, iv; assay type: ADME, organism-based; conditions: in vivo, read-out: Vdss
[32] = Cmax in rat at 1 mg/kg, iv; assay type: ADME, organism-based; conditions: in vivo
[33] = Unbound fraction in rat plasma at 1 mg/kg, iv; assay type: ADME, organism-based
[34] = AUC in rat at 1 mg/kg, iv; assay type: ADME, organism-based; conditions: in vivo
[35] = MRT in rat at 1 mg/kg, iv; assay type: ADME, organism-based; conditions: in vivo
[36] = Clearance in rat at 1 mg/kg, iv; assay type: ADME, organism-based; conditions: in vivo

| Structure (SMILES) | IC50 [1] [nM] | MITC95 (Serratia marcescens) [µM] | IC50 [2] [nM] | MITC95 (Escherichia coli) [µM] | MITC95 (Pseudomonas aeruginosa [3]) [µM] | MITC95 (Klebsiella pneumoniae) [µM] | MITC95 (Pseudomonas aeruginosa [4]) [µM] | Ratio [5] | IC50 [6] [nM] | IC50 [7] [nM] | also measured |
| --- | --- | --- | --- | --- | --- | --- | --- | --- | --- | --- | --- |
| Nc1nc2c(-c3ccc(S(=O)(=O)C4CCNCC4)c(S(N)(=O)=O)c3-c3nn[nH]n3)cccc2s1 | 0.46 | 3.13 | 0.26 | 3.13 | 1.56 | 6.25 | 1.56 | 1 | 0.4 | 0.12 | – |
| NS(=O)(=O)c1c(CC2CCNCC2)ccc(-c2ccc(C3CCNCC3)cc2)c1-c1nn[nH]n1 | 24 | 3.9 | 5 | 2 | 0.8 | 2.3 | 4.4 | 6 | 1230 | 11 | Activity [8]: Toxic; Activity [9]: Toxic; Activity [10]: Toxic; Activity [11]: Toxic; Activity [12]: Toxic; Activity [13]: Toxic; Activity [14]: Toxic; Cmax [15]: 459 µM; Activity [16]: Toxic; Activity [17]: Toxic; Activity [18]: Toxic |
| Cc1ccc(-c2ccc(S(=O)(=O)C3CNC3)c(S(N)(=O)=O)c2-c2nn[nH]n2)c2nc(N)[nH]c12 | 0.47 | 0.78 | 0.24 | 1.56 | 0.78 | 1.56 | 0.78 | 1 | – | 0.04 | – |
| CS(=O)(=O)c1ccc(-c2ccc(C3CCNCC3)cc2)c(-c2nnn[nH]2)c1S(N)(=O)=O | 0.1 | 3.13 | 0.13 | 3.13 | 0.78 | 3.13 | 6.25 | 8 | 2.6 | – | – |
| NS(=O)(=O)c1c(S(=O)(=O)C2CNC2)ccc(-c2ccc(C3CCNCC3)cc2)c1-c1nn[nH]n1 | 0.21 | 1.56 | 0.2 | 0.78 | 0.78 | 1.56 | 0.78 | 1 | 2.8 | – | MRT [19]: 40.2 min; Activity [20]: Non-toxic; clearance [21]: 8.5 mL/min/kg; fraction unbound [22]: 0.55; Cmax [23]: 35.7 µM; Activity [24]: Toxic; Activity [25]: Non-toxic; Vd [26]: 0.34 L/kg; AUC [27]: 15.6 µM·h |
| NS(=O)(=O)c1c(C(F)(F)F)ccc(-c2ccc(C3CCNCC3)cc2)c1-c1nn[nH]n1 | 1.2 | 0.2 | 0.3 | 0.7 | 0.78 | 1.9 | 50 | 64 | – | 0.9 | – |
| NS(=O)(=O)c1cccc(-c2ccc(C3CCNCC3)cc2)c1-c1nn[nH]n1 | 34 | 9 | 19 | 3 | 1.56 | 38 | 200 | 128 | – | – | – |
| NS(=O)(=O)c1c(CC2CNC2)ccc(-c2ccc(C3CCNCC3)cc2)c1-c1nn[nH]n1 | – | – | – | – | – | – | – | – | – | – | Cmax [28]: 45 µM; Activity [29]: Toxic; Activity [30]: Toxic |
| NCCS(=O)(=O)c1ccc(-c2ccc(C3CCNCC3)cc2)c(-c2nn[nH]n2)c1S(N)(=O)=O | 0.17 | 1.56 | 0.2 | 1.56 | 0.78 | 3.13 | – | 2 | – | – | – |
| NS(=O)(=O)c1c([S+]([O-])C2CCNCC2)ccc(-c2ccc(C3CCNCC3)cc2)c1-c1nnn[nH]1 (configuration not stated) | 5.9 | 6.25 | 1.18 | 3.13 | 1.56 | 6.25 | 3.1 | 2 | 1090 | – | – |
| NS(=O)(=O)c1c(SC2CCNCC2)ccc(-c2ccc(C3CCNCC3)cc2)c1-c1nnn[nH]1 | 35.7 | 3.13 | 48.5 | 1.56 | 0.78 | 6.25 | 25 | 32 | – | – | – |
| Cc1ccc(-c2cccc(S(N)(=O)=O)c2-c2nnn[nH]2)cc1 | 64 | 14 | 57 | 1.5 | – | 127 | – | – | – | 3.7 | – |
| NS(=O)(=O)c1c(S(=O)(=O)C2CCNCC2)ccc(-c2ccc(C3CCNCC3)cc2)c1-c1nnn[nH]1 | 0.52 | 3.13 | 0.31 | 1.56 | 0.78 | 3.13 | 0.78 | 1 | 4.1 | – | Vd [31]: 0.18 L/kg; Cmax [32]: 15.8 µM; fraction unbound [33]: 0.66; AUC [34]: 8.4 µM·h; MRT [35]: 46.8 min; clearance [36]: 3.8 mL/min/kg |
